Laboratory results from paper PMC9757072, “NrnA is a 5′-3′ exonuclease that processes short RNA substrates in vivo and in vitro” (Nucleic Acids Research, 2022).

Assays:
NrnABs = molecular target: T1, NrnABs (Bacillus subtilis, UniProt O34600, D156N/D80N); assay: DRaCALA
T1 construct: gene nrnA

OrnEc = molecular target: T2, OrnEc (Escherichia coli, UniProt P0A784); assay: cleavage of […]'-32P RNA mixture, denaturing PAGE; assay type: biochemical; conditions: 20 nM enzyme; GG is the 2-mer of the 2-7 and 10-mer mix; pH 8.0, 100 mM NaCl, Mg or Mn; labelled compound
T2 sequence (P0A784 1-181): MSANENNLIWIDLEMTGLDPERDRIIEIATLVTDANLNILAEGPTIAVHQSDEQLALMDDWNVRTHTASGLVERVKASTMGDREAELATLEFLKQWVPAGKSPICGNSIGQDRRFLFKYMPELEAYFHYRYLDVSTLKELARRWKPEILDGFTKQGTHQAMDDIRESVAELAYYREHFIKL

CnpBMt = CnpBMt (Mycobacterium tuberculosis, UniProt P71615); assay: cleavage of […]-c-di-AMP, denaturing PAGE; assay type: biochemical; conditions: 100 nM enzyme, 1 uM substrate; pH 8.0, 300 mM NaCl, 200 uM MnCl2, room temperature; labelled compound
Sequence of CnpBMt (P71615 whole entry): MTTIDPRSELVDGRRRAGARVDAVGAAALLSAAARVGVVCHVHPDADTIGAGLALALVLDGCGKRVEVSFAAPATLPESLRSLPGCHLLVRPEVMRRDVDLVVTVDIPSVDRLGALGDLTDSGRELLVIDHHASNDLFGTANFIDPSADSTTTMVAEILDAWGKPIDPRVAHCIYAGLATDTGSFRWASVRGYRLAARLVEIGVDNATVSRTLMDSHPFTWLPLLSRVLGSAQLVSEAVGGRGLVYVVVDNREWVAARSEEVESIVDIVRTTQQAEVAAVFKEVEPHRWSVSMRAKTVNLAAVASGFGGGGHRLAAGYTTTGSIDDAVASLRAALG

CnpBMs = molecular target: T3, CnpBMs (Mycolicibacterium smegmatis, UniProt A0QVM9); assay: cleavage of […]-c-di-AMP, denaturing PAGE; assay type: biochemical; conditions: 100 nM enzyme, 1 uM substrate; pH 8.0, 300 mM NaCl, 200 uM MnCl2, room temperature; labelled compound
T3 construct: gene MSMEG_2630
T3 sequence (A0QVM9 1-340): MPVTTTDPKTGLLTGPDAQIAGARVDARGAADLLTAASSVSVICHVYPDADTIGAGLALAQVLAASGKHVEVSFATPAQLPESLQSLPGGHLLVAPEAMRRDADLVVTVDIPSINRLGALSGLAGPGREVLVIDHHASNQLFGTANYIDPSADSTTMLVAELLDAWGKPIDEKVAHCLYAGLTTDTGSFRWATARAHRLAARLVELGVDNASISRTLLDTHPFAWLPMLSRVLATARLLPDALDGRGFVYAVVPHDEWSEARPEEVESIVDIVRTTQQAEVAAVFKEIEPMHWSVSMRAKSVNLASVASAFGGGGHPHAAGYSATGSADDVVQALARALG

GdpP(82–659)Bs = molecular target: T4, GdpP(82–659)Bs (Bacillus subtilis, UniProt P37484); assay: cleavage of […]-c-di-AMP, denaturing PAGE; assay type: biochemical; conditions: 100 nM enzyme, 1 uM substrate; pH 8.0, 300 mM NaCl, 200 uM MnCl2, room temperature; labelled compound; positive control
T4 construct: cytoplasmic portion, residues 82-659; N-terminal 6xHis tag kept; expressed in E. coli
T4 sequence (P37484 82-659): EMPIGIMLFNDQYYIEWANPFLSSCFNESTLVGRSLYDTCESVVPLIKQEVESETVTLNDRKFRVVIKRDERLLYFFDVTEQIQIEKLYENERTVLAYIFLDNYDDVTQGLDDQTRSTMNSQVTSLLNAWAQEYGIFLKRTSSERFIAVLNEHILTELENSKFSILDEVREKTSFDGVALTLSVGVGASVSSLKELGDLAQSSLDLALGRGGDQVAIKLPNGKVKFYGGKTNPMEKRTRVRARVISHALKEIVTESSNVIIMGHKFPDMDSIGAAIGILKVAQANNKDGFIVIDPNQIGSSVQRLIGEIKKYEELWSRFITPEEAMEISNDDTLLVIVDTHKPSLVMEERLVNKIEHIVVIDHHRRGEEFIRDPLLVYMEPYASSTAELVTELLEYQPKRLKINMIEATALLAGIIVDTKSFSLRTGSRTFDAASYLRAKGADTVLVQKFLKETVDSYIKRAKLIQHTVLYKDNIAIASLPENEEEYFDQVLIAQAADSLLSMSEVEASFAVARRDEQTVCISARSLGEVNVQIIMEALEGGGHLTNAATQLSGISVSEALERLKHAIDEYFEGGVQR

[1] = substrate: Nc1ccn([C@@H]2O[C@H](COP(=O)(O)O[C@H]3[C@@H](O)[C@H](n4ccc(N)nc4=O)O[C@@H]3COP(=O)(O)O[C@H]3[C@@H](O)[C@H](n4cnc5c(N)ncnc54)O[C@@H]3COP(=O)(O)O)[C@@H](O)[C@H]2O)c(=O)n1; assay: continuous PPDK/luciferase coupled assay of AMP release; assay type: biochemical, Bacillus subtilis; conditions: 10 mM MgCl2, 0.5 mM MnCl2, pH 8.0, 25 C, value assigned to ACC by printed order (AA or ACC), 5'-phosphate inferred from AMP release
[2] = substrate: Nc1ncnc2c1ncn2[C@@H]1O[C@H](COP(=O)(O)O[C@H]2[C@@H](O)[C@H](n3cnc4c(N)ncnc43)O[C@@H]2COP(=O)(O)O)[C@@H](O)[C@H]1O; assay: as above; assay type: biochemical, Bacillus subtilis; conditions: 10 mM MgCl2, 0.5 mM MnCl2, pH 8.0, 25 C, value assigned to AA by printed order (AA or ACC), 5'-phosphate inferred from 2 AMP per AA

T1 sequence (O34600 whole entry D80N/D156N): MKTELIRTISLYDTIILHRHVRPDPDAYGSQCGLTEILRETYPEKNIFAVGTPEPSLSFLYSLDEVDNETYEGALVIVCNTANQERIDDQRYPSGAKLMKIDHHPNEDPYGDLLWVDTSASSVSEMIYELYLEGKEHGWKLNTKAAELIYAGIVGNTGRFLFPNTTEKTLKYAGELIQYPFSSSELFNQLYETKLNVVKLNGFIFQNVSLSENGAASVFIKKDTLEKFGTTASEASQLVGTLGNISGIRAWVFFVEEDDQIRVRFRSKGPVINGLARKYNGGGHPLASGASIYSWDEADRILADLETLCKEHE

Nc1nc2c(ncn2[C@@H]2O[C@H](COP(=O)(O)O[C@H]3[C@@H](O)[C@H](n4cnc5c(=O)[nH]c(N)nc54)O[C@@H]3COP(=O)(O)O)[C@@H](O)[C@H]2O)c(=O)[nH]1 [GG]
Kd (NrnABs): 210 nM | cleavage of 5'-32P RNA mixture, denaturing PAGE (OrnEc): dinucleotides are rapidly processed, and only minimal trinucleotide processing was seen

Nc1nc2c(ncn2[C@@H]2O[C@H](COP(=O)(O)O)[C@@H](OP(=O)(O)OC[C@H]3O[C@@H](n4cnc5c(N)ncnc54)[C@H](O)[C@@H]3O)[C@H]2O)c(=O)[nH]1 [GA]
Kd (NrnABs): 360 ± 130 nM

Nc1ccn([C@@H]2O[C@H](COP(=O)(O)O)[C@@H](OP(=O)(O)OC[C@H]3O[C@@H](n4cnc5c(N)ncnc54)[C@H](O)[C@@H]3O)[C@H]2O)c(=O)n1 [CA]
Kd (NrnABs): 2270 ± 130 nM

Nc1ncnc2c1ncn2[C@@H]1O[C@H](COP(=O)(O)O[C@H]2[C@@H](O)[C@H](n3cnc4c(N)ncnc43)O[C@@H]2COP(=O)(O)O)[C@@H](O)[C@H]1O [AA]
Kd (NrnABs): 450 ± 30 nM

Nc1ncnc2c1ncn2[C@@H]1O[C@@H]2COP(=O)(O)O[C@H]3[C@@H](O)[C@H](n4cnc5c(N)ncnc54)O[C@@H]3COP(=O)(O)O[C@H]2[C@H]1O [c-di-AMP]
cleavage of 32P-c-di-AMP, denaturing PAGE (CnpBMt): only CnpB demonstrated an ability to directly hydrolyze c-di-AMP to AMP | cleavage of 32P-c-di-AMP, denaturing PAGE (CnpBMs): All CnpB-like proteins exhibited robust hydrolysis of c-di-AMP | cleavage of 32P-c-di-AMP, denaturing PAGE (GdpP(82–659)Bs): cytoplasmic portion of B. subtilis GdpP, which is known to hydrolyze c-di-AMP

Nc1ncnc2c1ncn2[C@@H]1O[C@H](COP(=O)(O)O[C@H]2[C@@H](O)[C@H](n3ccc(=O)[nH]c3=O)O[C@@H]2COP(=O)(O)O)[C@@H](O)[C@H]1O [UA]
Kd (NrnABs): 1290 ± 180 nM

B1: NrnABs (Bacillus subtilis subsp. subtilis str. 168) (protein)
chain: MKTELIRTISLYDTIILHRHVRPDPDAYGSQCGLTEILRETYPEKNIFAVGTPEPSLSFLYSLDEVDNETYEGALVIVCDTANQERIDDQRYPSGAKLMKIDHHPNEDPYGDLLWVDTSASSVSEMIYELYLEGKEHGWKLNTKAAELIYAGIVGDTGRFLFPNTTEKTLKYAGELIQYPFSSSELFNQLYETKLNVVKLNGFIFQNVSLSENGAASVFIKKDTLEKFGTTASEASQLVGTLGNISGIRAWVFFVEEDDQIRVRFRSKGPVINGLARKYNGGGHPLASGASIYSWDEADRILADLETLCKEHE
notes: full length; N-terminal 10xHis-SUMO tag cleaved by bdSENP1; expressed in E. coli T7 Express
Km [1]: 325 µM | Km [2]: 90 µM
